Tests used:
SazCA = biological target: T1, SazCA (Sulfurihydrogenibium azorense, UniProt C1DTU5); assay type: biochemical; settings: read-out: FAM
T1 construct: gene SULAZ_0541

Can2 = Can2 (Cryptococcus neoformans, UniProt Q3I4V7); assay type: biochemical; settings: read-out: FAM
NcoCAγ = biological target: T2, NcoCAγ (Nostoc commune, UniProt A0A2R5FUA4); assay type: biochemical; settings: TRIS pH 8.3, 0.1 M Na2SO4, 25 °C; 15 min pre-incubation; read-out: FAM
T2 construct: gene NIES4072_30780

CgNce103 = biological target: T3, CgNce103 (Nakaseomyces glabratus, UniProt Q6FTL6); assay type: biochemical; settings: read-out: FAM
T3 construct: gene NCE103

BpsCAβ = biological target: T4, BpsCAβ (Burkholderia pseudomallei, UniProt Q63Y17); assay type: biochemical; settings: read-out: FAM
T4 construct: gene BPSL0372

PfCA = biological target: T5, PfCA (Plasmodium falciparum, UniProt Q8IHW5); assay type: biochemical; settings: Hepes pH 7.5, 0.1 M Na2SO4, 25 °C; 15 min pre-incubation; read-out: FAM
T5 construct: gene PF3D7_1140000

TweCAδ = biological target: T6, TweCAδ (Conticribra weissflogii, UniProt Q5U9J1); assay type: biochemical; settings: Hepes pH 7.5, 0.1 M Na2SO4, 25 °C; 15 min pre-incubation; read-out: FAM
T6 construct: gene ca1

MgaCA = biological target: T7, MgaCA (Malassezia globosa, UniProt A8Q1N3); assay type: biochemical; settings: read-out: FAM
T7 construct: gene MGL_1814

VchCAα = biological target: T8, VchCAα (Vibrio cholerae, UniProt Q9KMP6); settings: read-out: FAM; Hepes pH 7.5, 0.1 M Na2SO4, 25 °C; 15 min pre-incubation
T8 construct: gene VC_A0274

PhaCAγ = biological target: T9, PhaCAγ; settings: read-out: FAM; TRIS pH 8.3, 0.1 M Na2SO4, 25 °C; 15 min pre-incubation
T9 construct: gene PhaCA

BpsCAγ = biological target: T10, BpsCAγ; settings: read-out: FAM
T10 construct: gene BpsCAgamma

CpsCAγ = settings: read-out: FAM; TRIS pH 8.3, 0.1 M Na2SO4, 25 °C; 15 min pre-incubation
TcCA = settings: read-out: FAM; Hepes pH 7.5, 0.1 M Na2SO4, 25 °C; 15 min pre-incubation
VchCAγ = biological target: T11, VchCAγ (Vibrio cholerae, UniProt Q9KVT1); settings: read-out: FAM; TRIS pH 8.3, 0.1 M Na2SO4, 25 °C; 15 min pre-incubation
T11 construct: gene VC_0058

VchCAβ = biological target: T12, VchCAβ (Vibrio cholerae, UniProt A0A086SLX8); test: biochemical
T12 construct: gene can

Carbonate dehydratase = Carbonate dehydratase (Sulfurihydrogenibium sp. (strain YO3AOP1), UniProt B2V8E3); test: biochemical

CpsCAγ, sequence (UPI00051A3E8B entry or part of it): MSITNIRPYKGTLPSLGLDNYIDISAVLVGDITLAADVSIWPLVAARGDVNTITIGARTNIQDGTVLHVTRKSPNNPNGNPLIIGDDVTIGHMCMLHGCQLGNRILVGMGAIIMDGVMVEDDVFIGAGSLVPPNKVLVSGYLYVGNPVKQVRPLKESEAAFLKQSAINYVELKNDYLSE
T12 sequence (A0A086SLX8 1-222): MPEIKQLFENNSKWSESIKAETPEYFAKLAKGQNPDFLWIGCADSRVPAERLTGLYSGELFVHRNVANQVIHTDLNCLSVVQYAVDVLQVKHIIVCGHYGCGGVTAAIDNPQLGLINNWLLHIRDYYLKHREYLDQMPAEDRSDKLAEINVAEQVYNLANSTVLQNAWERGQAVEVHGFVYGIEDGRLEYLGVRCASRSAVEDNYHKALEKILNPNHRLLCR
T4 sequence (Q63Y17 1-256): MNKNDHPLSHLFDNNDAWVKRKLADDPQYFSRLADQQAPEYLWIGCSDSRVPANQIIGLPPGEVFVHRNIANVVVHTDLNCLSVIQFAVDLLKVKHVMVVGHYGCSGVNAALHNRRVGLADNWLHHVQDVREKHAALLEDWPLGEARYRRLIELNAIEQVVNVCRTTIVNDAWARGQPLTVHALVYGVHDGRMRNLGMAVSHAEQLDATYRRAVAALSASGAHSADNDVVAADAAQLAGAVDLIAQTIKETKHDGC
T11 sequence (Q9KVT1 1-184): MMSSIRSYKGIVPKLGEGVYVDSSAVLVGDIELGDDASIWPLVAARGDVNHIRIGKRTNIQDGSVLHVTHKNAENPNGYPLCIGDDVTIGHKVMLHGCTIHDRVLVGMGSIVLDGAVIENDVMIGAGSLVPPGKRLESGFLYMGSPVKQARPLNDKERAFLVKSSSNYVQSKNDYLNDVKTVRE
T3 sequence (Q6FTL6 entry or part of it): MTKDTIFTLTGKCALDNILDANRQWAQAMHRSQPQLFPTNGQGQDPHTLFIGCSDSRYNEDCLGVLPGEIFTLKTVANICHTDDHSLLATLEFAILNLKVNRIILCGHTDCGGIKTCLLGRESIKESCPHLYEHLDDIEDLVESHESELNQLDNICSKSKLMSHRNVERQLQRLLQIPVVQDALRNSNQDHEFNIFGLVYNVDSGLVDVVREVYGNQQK
T1 sequence (C1DTU5 entry or part of it): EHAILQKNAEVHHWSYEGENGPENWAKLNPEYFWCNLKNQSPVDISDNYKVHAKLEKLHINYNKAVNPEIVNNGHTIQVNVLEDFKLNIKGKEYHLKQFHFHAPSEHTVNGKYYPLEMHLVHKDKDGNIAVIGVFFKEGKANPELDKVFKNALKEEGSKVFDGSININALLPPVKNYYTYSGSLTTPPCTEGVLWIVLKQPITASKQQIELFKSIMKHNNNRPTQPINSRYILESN
T8 sequence (Q9KMP6 21-239 limits assumed): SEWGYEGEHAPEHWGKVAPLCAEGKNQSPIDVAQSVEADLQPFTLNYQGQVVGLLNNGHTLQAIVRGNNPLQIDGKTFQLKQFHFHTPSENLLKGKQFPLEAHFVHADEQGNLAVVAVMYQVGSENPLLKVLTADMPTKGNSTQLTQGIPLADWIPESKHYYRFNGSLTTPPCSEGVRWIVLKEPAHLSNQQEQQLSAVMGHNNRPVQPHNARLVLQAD
T7 sequence (A8Q1N3 entry or part of it): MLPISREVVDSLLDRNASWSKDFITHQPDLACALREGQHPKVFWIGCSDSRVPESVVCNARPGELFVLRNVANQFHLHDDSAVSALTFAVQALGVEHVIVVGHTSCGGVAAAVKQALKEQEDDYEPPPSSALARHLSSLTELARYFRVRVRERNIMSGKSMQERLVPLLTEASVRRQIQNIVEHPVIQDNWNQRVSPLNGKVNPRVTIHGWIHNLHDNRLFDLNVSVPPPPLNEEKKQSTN
T6 sequence (Q5U9J1 entry or part of it): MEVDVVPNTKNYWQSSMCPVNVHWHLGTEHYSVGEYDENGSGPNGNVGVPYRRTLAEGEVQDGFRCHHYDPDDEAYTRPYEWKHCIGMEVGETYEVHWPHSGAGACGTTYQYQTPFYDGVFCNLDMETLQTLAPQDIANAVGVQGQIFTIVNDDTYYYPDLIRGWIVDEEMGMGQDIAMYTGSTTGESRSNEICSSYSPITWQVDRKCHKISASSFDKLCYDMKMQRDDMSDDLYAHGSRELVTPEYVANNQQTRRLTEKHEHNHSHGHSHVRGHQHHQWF
T5 sequence (Q8IHW5 entry or part of it): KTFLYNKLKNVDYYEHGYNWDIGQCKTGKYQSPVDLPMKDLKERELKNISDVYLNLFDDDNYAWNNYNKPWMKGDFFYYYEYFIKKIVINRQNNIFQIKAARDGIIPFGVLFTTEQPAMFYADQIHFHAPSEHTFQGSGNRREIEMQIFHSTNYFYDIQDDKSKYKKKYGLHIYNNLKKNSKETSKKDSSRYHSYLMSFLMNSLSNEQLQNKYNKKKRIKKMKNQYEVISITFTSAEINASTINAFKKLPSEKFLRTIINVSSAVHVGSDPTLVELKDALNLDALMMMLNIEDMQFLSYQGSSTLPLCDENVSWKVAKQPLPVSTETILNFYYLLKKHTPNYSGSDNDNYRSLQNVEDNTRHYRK
Can2, sequence (Q3I4V7 entry or part of it): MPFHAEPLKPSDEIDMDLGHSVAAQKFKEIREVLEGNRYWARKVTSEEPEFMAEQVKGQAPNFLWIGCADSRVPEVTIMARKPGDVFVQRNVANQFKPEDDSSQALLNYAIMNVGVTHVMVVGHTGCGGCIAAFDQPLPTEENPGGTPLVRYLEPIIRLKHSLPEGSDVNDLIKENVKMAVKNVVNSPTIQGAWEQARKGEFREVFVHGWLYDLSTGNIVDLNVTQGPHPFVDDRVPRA
T2 sequence (A0A2R5FUA4 entry or part of it): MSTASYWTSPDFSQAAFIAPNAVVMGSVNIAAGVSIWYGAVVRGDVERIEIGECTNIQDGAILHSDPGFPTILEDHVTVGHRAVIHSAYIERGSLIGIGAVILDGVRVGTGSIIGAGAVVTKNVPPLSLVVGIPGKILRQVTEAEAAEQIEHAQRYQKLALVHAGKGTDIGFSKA

## NC(N)=Nc1nc(CSCCC(N)=NS(N)(=O)=O)cs1 [FAM, Famotidine]
SazCA
  Ki: 0.124 µM
Can2
  Ki: 0.107 µM
NcoCAγ
  Ki: 1.69 µM
CgNce103
  Ki: 0.0136 µM
BpsCAβ
  Ki: 8.27 µM
PfCA
  Ki: 0.142 µM
TweCAδ
  Ki: 0.408 µM
MgaCA
  Ki: 42.1 µM
VchCAα
  Ki: 0.0723 µM
PhaCAγ
  Ki: 0.0668 µM
BpsCAγ
  Ki: 8.29 µM
CpsCAγ
  Ki: 0.089 µM
TcCA
  Ki: 5.71 µM
VchCAγ
  Ki: 5.32 µM
VchCAβ
  Ki: 83.9 µM
Carbonate dehydratase
  Ki: 0.23 µM

— article PMC6366436 (Journal of Enzyme Inhibition and Medicinal Chemistry, 2019)
